One compound from US6335008B1, “Hybrid genes incorporating a DNA fragment containing at least one gene encoding an insecticidal protein and a gene encoding a glutamine synthase inhibitor, plasmids, transformed cyanobacteria expressing such proteins and method for use as biocontrol agent” (priority 1987, dated 2002) can be followed below.

Assay [1] has as its system Synechocystis 6803 transformed with pWP3210. Description: Growth on BG-11 agar plate containing PPT or Bialaphos, bar gene transformant. The note with it: Bialaphos at 5 micrograms/ml. The class given is cell-based. As to the method: (§1) Dilution of transformed Synechocystis 6803 was plated on BG-11 agar plate containing PPT (Table 4).
Assay [2] relates to Synechocystis 6803 transformed with pKW 1188. As to the kind of experiment: Growth on BG-11 agar plate containing PPT or Bialaphos, vector transformant. The class given is cell-based. The note with it: Bialaphos at 5 micrograms/ml. As to the method: as §1

Take `C[C@H](NC(=O)[C@H](C)NC(=O)[C@@H](N)CCP(C)(=O)O)C(=O)O` [Bialaphos]: the “growth on Bialaphos” value in assay [1] and in assay [2] was “neither of these two transformants grow” each time.
